Test results reported in US6472348B1, “Pyridone derivatives and herbicides” (Kumiai Chemical Industry Co., Ltd., priority 1996, dated 2002).

Legend:
[1] = system: barnyardgrass (Ec); test: Test Example 1: herbicidal effects by paddy field soil treatment; format: in vivo; settings: 100 g of the active ingredient per 10 ares, 21st day after the application, index 0-5 of Table 47;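 also: grade of growth control; 5 = at least 90%; 4 = 70 to 90%; 3 = 50 to 70%; 2 = 30 to 50%; 1 = 10 to 30%; 0 = under 10%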
Procedure, shortened: (§1)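 Herbicidal effect was scored against a graded standard 21 days after treatment. Seeds were sown in puddled, leveled paddy soil flooded to 3 cm depth, and the active ingredient was applied at 100 g per 10 ares before greenhouse culture.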

[2] = system: bulrush (Sc); test: as above; format: in vivo; settings: 100 g of the active ingredient per 10 ares, 21st day after the application, index 0-5 of Table 47;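 also: grade of growth control; 5 = at least 90%; 4 = 70 to 90%; 3 = 50 to 70%; 2 = 30 to 50%; 1 = 10 to 30%; 0 = under 10%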
Procedure, shortened: as §1

[3] = system: monochoria (Mo); test: as above; format: in vivo; settings: 100 g of the active ingredient per 10 ares, 21st day after the application, index 0-5 of Table 47;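 also: grade of growth control; 5 = at least 90%; 4 = 70 to 90%; 3 = 50 to 70%; 2 = 30 to 50%; 1 = 10 to 30%; 0 = under 10%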
Procedure, shortened: as §1

[4] = system: Digitaria ciliaris (Di); test: Test Example 2: herbicidal effects by upland field soil treatment; format: in vivo; settings: 100 g of the active ingredient per 10 ares, 21st day after the application, index 0-5 of Table 47;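 also: grade of growth control; 5 = at least 90%; 4 = 70 to 90%; 3 = 50 to 70%; 2 = 30 to 50%; 1 = 10 to 30%; 0 = under 10%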
Description: (§2) (Test on Herbicidal Effects by Upland Field Soil Treatment)

[5] = system: barnyardgrass (Ec); test: as above; format: in vivo; settings: 100 g of the active ingredient per 10 ares, 21st day after the application, index 0-5 of Table 47
Description: as §2

[6] = system: common lambsquarters (Ch); test: as above; format: in vivo; settings: 100 g of the active ingredient per 10 ares, 21st day after the application, index 0-5 of Table 47
Description: as §2

[7] = system: pale smartweed (Po); test: as above; format: in vivo; settings: 100 g of the active ingredient per 10 ares, 21st day after the application, index 0-5 of Table 47
Description: as §2

[8] = system: rice flatsedge (Ci); test: as above; format: in vivo; settings: 100 g of the active ingredient per 10 ares, 21st day after the application, index 0-5 of Table 47
Description: as §2

[9] = system: slender amaranth (Am); test: as above; format: in vivo; settings: 100 g of the active ingredient per 10 ares, 21st day after the application, index 0-5 of Table 47
Description: as §2

[10] = system: Diaitaria ciliaris (Di); test: Test Example 3: herbicidal effects by upland field foliage treatment; format: in vivo; design: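 grade of growth control; 5 = at least 90%; 4 = 70 to 90%; 3 = 50 to 70%; 2 = 30 to 50%; 1 = 10 to 30%; 0 = under 10%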; settings: 100 g of the active ingredient per 10 ares, evaluated on the 14th day after treatment
Procedure, shortened: (§3)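 Weeds were sown in sand-filled pots (surface area: 120 cm^2), covered with soil and grown in a greenhouse for 2 weeks before foliar treatment. Plants then stayed in the greenhouse, and herbicidal effect was scored against graded standards on the 14th day after treatment.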

[11] = system: barnyardgrass (Ec); test: as above; format: in vivo; design: scale not given here; settings: 100 g of the active ingredient per 10 ares, evaluated on the 14th day after treatment
Procedure, shortened: as §3

[12] = system: common lambsquarters (Ch); test: as above; format: in vivo; design: scale not given here; settings: 100 g of the active ingredient per 10 ares, evaluated on the 14th day after treatment
Procedure, shortened: as §3

[13] = system: pale smartweed (Po); test: as above; format: in vivo; design: scale not given here; settings: 100 g of the active ingredient per 10 ares, evaluated on the 14th day after treatment
Procedure, shortened: as §3

[14] = system: rice flatsedge (Ci); test: as above; format: in vivo; design: scale not given here; settings: 100 g of the active ingredient per 10 ares, evaluated on the 14th day after treatment
Procedure, shortened: as §3

[15] = system: slender amaranth (Am); test: as above; format: in vivo; design: scale not given here; settings: 100 g of the active ingredient per 10 ares, evaluated on the 14th day after treatment
Procedure, shortened: as §3

[16] = system: wheat (Tr); test: Test Example 9: crop plant selectivity by upland field foliage treatment (wheat), phytotoxicity; settings: dose 1.6 g ai/10a, 14th day after treatment
Procedure, shortened: (§4)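 Sand-filled pot, wheat + weeds co-sown; greenhouse 2 wk, then foliage treatment; greenhouse culture continued; visual scoring of weed control and crop injury at 14 d post-treatment per grading scale.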

[17] = system: China jute (Ab); test: Test Example 9: crop plant selectivity by upland field foliage treatment (wheat), herbicidal effects; format: in vivo; design: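 grade of growth control; 5 = at least 90%; 4 = 70 to 90%; 3 = 50 to 70%; 2 = 30 to 50%; 1 = 10 to 30%; 0 = under 10%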; settings: dose 1.6 g ai/10a, 14th day after treatment
Procedure, shortened: as §4

[18] = system: common lambsquarters (Ch); test: as above; format: in vivo; design: scale not given here; settings: dose 1.6 g ai/10a, 14th day after treatment
Procedure, shortened: as §4

[19] = system: pale smartweed (Po); test: as above; format: in vivo; design: scale not given here; settings: dose 1.6 g ai/10a, 14th day after treatment
Procedure, shortened: as §4

[20] = system: slender amaranth (Am); test: as above; format: in vivo; design: scale not given here; settings: dose 1.6 g ai/10a, 14th day after treatment
Procedure, shortened: as §4

[21] = system: soybean (Gl); test: Test Example 10: crop plant selectivity by upland field foliage treatment (soybean), phytotoxicity; settings: dose 1.6 g ai/10a, 14th day after treatment
Description: (§5) (Test on Crop Plant Selectivity by Upland Field Foliage Treatment)
(§6) In a plastic pot (surface area: 600 cm^2) filled with sand, soybean (Gl), pale smartweed (Po), slender amaranth (Am), common lambsquarters (Ch) and China jute (Ab) were sown and cultured in a green house for 2 weeks. […] The plants were then cultured in a green house, and the evaluation of the herbicidal effects and phytotoxicity was conducted on the 14th day after the treatment in accordance with the standards as identified in Table 47.

[22] = system: China jute (Ab); test: Test Example 10: crop plant selectivity by upland field foliage treatment (soybean), herbicidal effects; format: in vivo; settings: dose 1.6 g ai/10a, 14th day after treatment
Description: as §5, §6

[23] = system: common lambsquarters (Ch); test: as above; format: in vivo; settings: dose 1.6 g ai/10a, 14th day after treatment
Description: as §5, §6

[24] = system: pale smartweed (Po); test: as above; format: in vivo; settings: dose 1.6 g ai/10a, 14th day after treatment
Description: as §5, §6

[25] = system: slender amaranth (Am); test: as above; format: in vivo; settings: dose 1.6 g ai/10a, 14th day after treatment
Description: as §5, §6

[26] = system: corn (Ze); test: Test Example 11: crop plant selectivity by upland field foliage treatment (corn), phytotoxicity; settings: upland field foliage treatment, dose 1.6 g ai/10a, 14th day after treatment
Procedure, shortened: (§7)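 Corn with pale smartweed, slender amaranth, common lambsquarters and China jute sown in sand-filled pots and grown 2 weeks in a greenhouse before foliage treatment. Herbicidal effect and crop phytotoxicity scored on day 14 after treatment against a rating standard.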

[27] = system: China jute (Ab); test: Test Example 11: crop plant selectivity by upland field foliage treatment (corn), herbicidal effects; format: in vivo; design: scale not given here; settings: upland field foliage treatment (corn test), dose 1.6 g ai/10a, 14th day after treatment
Procedure, shortened: as §7

[28] = system: common lambsquarters (Ch); test: as above; format: in vivo; design: scale not given here; settings: upland field foliage treatment (corn test), dose 1.6 g ai/10a, 14th day after treatment
Procedure, shortened: as §7

[29] = system: pale smartweed (Po); test: as above; format: in vivo; design: scale not given here; settings: upland field foliage treatment (corn test), dose 1.6 g ai/10a, 14th day after treatment
Procedure, shortened: as §7

[30] = system: slender amaranth (Am); test: as above; format: in vivo; design: scale not given here; settings: upland field foliage treatment (corn test), dose 1.6 g ai/10a, 14th day after treatment
Procedure, shortened: as §7

In the case of Cn1c(C(F)(F)F)ccc(-c2cc(OC3CCCC3)c(Cl)cc2F)c1=O [1-26], the “Herbicidal effects Ec” value [1] is reported as 5, the “Herbicidal effects Sc” value [2] is reported as 5 and the “Herbicidal effects Mo” value [3] is reported as 5. The “Herbicidal effects Di” value [4] was 5, the “Herbicidal effects Ec” value [5] was 5 and the “Herbicidal effects Ch” value [6] was 5. The “Herbicidal effects Po” value [7] was 5, the “Herbicidal effects Ci” value [8] was 5 and the “Herbicidal effects Am” value [9] was 5. The “Herbicidal effects Di” value [10] was 5, the “Herbicidal effects Ec” value [11] was 5 and the “Herbicidal effects Ch” value [12] was 5. The “Herbicidal effects Po” value [13] was 5, the “Herbicidal effects Ci” value [14] was 5 and the “Herbicidal effects Am” value [15] was 5. The “Phytotoxicity Tr” value [16] was 2, the “Herbicidal effects Ab” value [17] was 5 and the “Herbicidal effects Ch” value [18] was 5. For the same compound, the “Herbicidal effects Po” value [19] was 5, the “Herbicidal effects Am” value [20] was 5 and the “Phytotoxicity Gl” value [21] was 2. The “Herbicidal effects Ab” value [22] was 5, the “Herbicidal effects Ch” value [23] was 5 and the “Herbicidal effects Po” value [24] was 5. The “Herbicidal effects Am” value [25] was 5, the “Phytotoxicity Ze” value [26] was 2 and the “Herbicidal effects Ab” value [27] was 5. The “Herbicidal effects Ch” value [28] was 5, the “Herbicidal effects Po” value [29] was 5 and the “Herbicidal effects Am” value [30] was 5.

C#CCSc1cc(-c2ccc(C(F)(F)F)n(C)c2=O)c(Cl)cc1Cl [1-52] was tested, and the “Herbicidal effects Di” value [4] was 5, the “Herbicidal effects Ec” value [5] was 5 and the “Herbicidal effects Ch” value [6] was 5. The “Herbicidal effects Po” value [7] was 5, the “Herbicidal effects Ci” value [8] was 5 and the “Herbicidal effects Am” value [9] was 5. For the same compound, the “Phytotoxicity Tr” value [16] was 1, the “Herbicidal effects Ab” value [17] was 5 and the “Herbicidal effects Ch” value [18] was 5. For the same compound, the “Herbicidal effects Po” value [19] was 5, the “Herbicidal effects Am” value [20] was 5 and the “Phytotoxicity Gl” value [21] was 2. For the same compound, the “Herbicidal effects Ab” value [22] was 5, the “Herbicidal effects Ch” value [23] was 5 and the “Herbicidal effects Po” value [24] was 5. For the same compound, the “Herbicidal effects Am” value [25] was 5, the “Phytotoxicity Ze” value [26] was 2 and the “Herbicidal effects Ab” value [27] was 5. The “Herbicidal effects Ch” value [28] was 5, the “Herbicidal effects Po” value [29] was 5 and the “Herbicidal effects Am” value [30] was 5.

With Cn1c(C(F)(F)F)ccc(-c2cc(Oc3ccccc3)c(Cl)cc2F)c1=O [Compound No. 1-22] the “Herbicidal effects Ec” value [1] was 5, the “Herbicidal effects Sc” value [2] was 5 and the “Herbicidal effects Mo” value [3] was 5. For the same compound, the “Herbicidal effects Di” value [10] was 5, the “Herbicidal effects Ec” value [11] was 5 and the “Herbicidal effects Ch” value [12] was 5. The “Herbicidal effects Po” value [13] was 5, the “Herbicidal effects Ci” value [14] was 5 and the “Herbicidal effects Am” value [15] was 5. For the same compound, the “Phytotoxicity Tr” value [16] was 2, the “Herbicidal effects Ab” value [17] was 5 and the “Herbicidal effects Ch” value [18] was 5. The “Herbicidal effects Po” value [19] was 5, the “Herbicidal effects Am” value [20] was 5 and the “Phytotoxicity Gl” value [21] was 2. The “Herbicidal effects Ab” value [22] was 5, the “Herbicidal effects Ch” value [23] was 5 and the “Herbicidal effects Po” value [24] was 5. For the same compound, the “Herbicidal effects Am” value [25] was 5, the “Phytotoxicity Ze” value [26] was 2 and the “Herbicidal effects Ab” value [27] was 5. For the same compound, the “Herbicidal effects Ch” value [28] was 5, the “Herbicidal effects Po” value [29] was 5 and the “Herbicidal effects Am” value [30] was 5.
